Legend:
Type in all cases: in vivo
[1] = system: Atlantic salmons (Salmo salar); assay: Cultivation of Atlantic salmon with carotenoid feed: fish weight and flesh color by spectrometer
From the text: The flesh color of a landed salmon can be quantified with the L*a*b* color system by measuring the color using a spectrometer. L* represents the luminance, a* represents the chroma red, and b* represents chroma yellow. A higher value of a*/b* represents a color more reddish than orangish, and a lower value of a*/b* represents a color more orangish than reddish. […] 400 Atlantic salmons (Salmo salar) each weighing about 300 g were cultivated as a test division of being fed with the above-described fermented product, and another 400 Atlantic salmons each weighing about 300 g were cultivated as a test division of being fed with the above-described synthetic product. The salmons were fed in satiation in a marine fish pen for 12 months. After the 12 months of cultivating, 20 fish of each test division were landed and weighed. […] The fish were immediately killed by cutting medulla, and the fish flesh was measured in terms of the color tone by a spectrometer. […] After the measurement, the fish flesh was frozen for preservation for 1 month. After being thawed, the fish flesh of the 20 fish of each test division was analyzed in terms of the content of each carotenoid compound.

[2] = system: silver salmons (Oncorhynchus kisutch); assay: Cultivation of silver salmon with carotenoid feed: fish weight and flesh color by spectrometer
From the text: The flesh color of a landed salmon can be quantified with the L*a*b* color system by measuring the color using a spectrometer. L* represents the luminance, a* represents the chroma red, and b* represents chroma yellow. A higher value of a*/b* represents a color more reddish than orangish, and a lower value of a*/b* represents a color more orangish than reddish. […] 300 silver salmons (Oncorhynchus kisutch) each weighing about 200 g were cultivated as a test division of being fed with the above-described fermented product, and another 300 silver salmons each weighing about 200 g were cultivated as a test division of being fed with the above-described synthetic product. The salmons were fed in satiation in a marine fish pen for 6 months. After the 6 months of cultivating, 10 fish of each test division were weighed. […] The fish were immediately killed by cutting medulla and frozen for preservation. After being thawed, the fish flesh was milled by a coffee mill, and a part thereof was put into a polyethylene bag to measure the color tone thereof by a spectrometer CM-508i (Minolta). […] From a part of the milled fish flesh, the carotenoid colorant was extracted, and analyzed in terms of the content of each carotenoid compound by HPLC.

[3] = system: king salmons (Oncorhynchus tshawytscha); assay: Cultivation of king salmon with carotenoid feed: fish weight and flesh color by spectrometer
From the text: The flesh color of a landed salmon can be quantified with the L*a*b* color system by measuring the color using a spectrometer. L* represents the luminance, a* represents the chroma red, and b* represents chroma yellow. A higher value of a*/b* represents a color more reddish than orangish, and a lower value of a*/b* represents a color more orangish than reddish. […] 100 king salmons (Oncorhynchus tshawytscha) each weighing about 200 g were cultivated as a test division of being fed with the above-described fermented product, and another 100 king salmons each weighing about 200 g were cultivated as a test division of being fed with the above-described synthetic product. The salmons were fed in satiation in a marine fish pen for 3 months. After the 3 months of cultivating, 15 fish of each test division were sampled and weighed. […] The fish were immediately killed by cutting medulla. […] After the measurement, the fish flesh was frozen for preservation for 1 month. After being thawed, the fish flesh of the fish of each test division was analyzed in terms of the content of each carotenoid compound.

[4] = system: rainbow trouts (Oncorhynchus mykiss); assay: Cultivation of rainbow trout with carotenoid feed: fish weight and flesh color by spectrometer
From the text: The flesh color of a landed salmon can be quantified with the L*a*b* color system by measuring the color using a spectrometer. L* represents the luminance, a* represents the chroma red, and b* represents chroma yellow. A higher value of a*/b* represents a color more reddish than orangish, and a lower value of a*/b* represents a color more orangish than reddish. […] 50 rainbow trouts (Oncorhynchus mykiss) each weighing about 100 g were cultivated in a water tank as a test division of being fed with the above-described fermented product, and another 50 rainbow trouts each weighing about 100 g were cultivated in a water tank as a test division of being fed with the above-described synthetic product. The trouts of each test division were fed in satiation in fresh water for 3 months. After the 3 months of cultivating, 12 fish of each test division were weighed. […] The fish were immediately killed by cutting medulla. […] After the measurement, the fish flesh was frozen for preservation. After being thawed, the fish flesh of the 12 fish of each test division was analyzed in terms of the content of each carotenoid compound.

[5] = flesh color tone by spectrometer, 12 months, average of 20 fish
[6] = milled thawed fish flesh, spectrometer CM-508i, 6 months, average of 10 fish
[7] = flesh color by spectrometer, 3 months, average of 15 fish
[8] = flesh color by spectrometer, 3 months, average of 12 fish

Which results are given for `CC1=C(/C=C/C(C)=C/C=C/C(C)=C/C=C/C=C(C)/C=C/C=C(C)/C=C/C2=C(C)C(=O)[C@@H](O)CC2(C)C)C(C)(C)C[C@H](O)C1=O` [Synthetic product, astaxanthin]?
Fish flesh color exhibited ([1]; 12 months of cultivating): reddish orange color with a high level of chroma red; L* value (luminance) [1, 5]: 50.0; a* value (chroma red) [1, 5]: 26.2; a*/b* [1, 5]: 0.94; b* value (chroma yellow) [1, 5]: 27.9; Fish flesh color exhibited ([2]; 6 months of cultivating): unnatural red color; L* value (luminance) [2, 6]: 55.6; a* value (chroma red) [2, 6]: 26.0; b* value (chroma yellow) [2, 6]: 26.2; a*/b* ([2]; milled thawed fish flesh, spectrometer, 6 months, average of 10 fish): 0.99; Fish flesh color exhibited ([3]; 3 months of cultivating): reddish orange color close to a red color; L* value (luminance) [3, 7]: 50.8; a* value (chroma red) [3, 7]: 23.7; a*/b* [3, 7]: 0.93; b* value (chroma yellow) [3, 7]: 25.5; Fish flesh color exhibited ([4]; 3 months of cultivating): reddish orange color close to a red color; L* value (luminance) [4, 8]: 41.8; a* value (chroma red) [4, 8]: 9.1; a*/b* [4, 8]: 0.66; b* value (chroma yellow) [4, 8]: 13.8

Source: patent US8999664B2, “Method of improving salmon meat color” (JX Nippon Oil & Energy Corporation, priority 2006, dated 2015)
